These results are taken from patent publication US6399646B1 (priority 2001, dated 2002).

In assay [1] the test system is Ralstonia. To be noted: tomato plants transferred into hydroponic solutions inoculated with Ralstonia and previously treated with 3-IBA; more than 60% wilt in its absence; cited from earlier work.
The subject of assay [2] is Ralstonia solanacearum. Format: in vivo. To be noted: for Bacterial wilt severity: foliar application, tomato plants, scale 0=healthy to 4=dead plant.
The subject of assay [3] is Ralstonia. Conditions: solution added to Ralstonia culture liquid in physiological brine; cited from earlier work.

Like-named read-outs stand apart in the source and are kept apart here. Marks after values point to notes of the source that are not given here.

With `CC(CC(=O)O)c1c[nH]c2ccccc12` (centres unmarked) [3-IBA, 3-(3-indolyl) butanoic acid], the Plants slightly wilted result in assay [1] is “less than 10%”. Further, the Bacterial wilt severity was 2.3 in assay [2] (higher concentration (2.0 lbs active ingredient per 100 gallons), rated 9/26/2000, six replications); 3.0 in assay [2] (higher concentration (2.0 lbs active ingredient per 100 gallons), rated 9/27/2000); 2.8 in assay [2] (higher concentration (2.0 lbs active ingredient per 100 gallons), rated 9/30/2000); 3.3 in assay [2] (higher concentration (2.0 lbs active ingredient per 100 gallons), rated 10/04/2000); 1.5*** in assay [2] (higher concentration (2.0 lbs active ingredient per 100 gallons), rated 10/26/2000); 2.5 in assay [2] (low concentration (0.25 lbs active ingredient per 100 gallons), rated 9/26/2000, six replications). Also, the Bacterial wilt severity in assay [2] (low concentration (0.25 lbs active ingredient per 100 gallons), rated 9/27/2000) is 3.0; in assay [2] (low concentration (0.25 lbs active ingredient per 100 gallons), rated 9/30/2000) it was 4.0; in assay [2] (low concentration (0.25 lbs active ingredient per 100 gallons), rated 10/04/2000), 3.8; in assay [2] (low concentration (0.25 lbs active ingredient per 100 gallons), rated 10/26/2000), 4.0**. Also, the “Plants revived and recovering at the end of the trial” value in assay [2] (higher concentration, foliar treatment prior to inoculation, of 6 tomato plants) worked out at 3 plants. Also, the “State of the 6 treated plants by the end of the trial” value in assay [2] (low concentration, foliar treatment prior to inoculation, 6 tomato plants) is given as “all dead”.
`C[C@@H](CC(=O)O)c1c[nH]c2ccccc12` [(S)-3-(3-indolyl) butanoic acid]: the “Ralstonia growth (turbidity of culture liquid)” value in assay [3] is “suppression of Ralstonia growth”.
